In publication PMC10070484, “Structure and mechanism of oxalate transporter OxlT in an oxalate-degrading bacterium in the gut microbiota” (Nature Communications, 2023):

Legend:
Assay in all cases: GFP thermal shift (GFP-TS)
Assay type in all cases: binding
Conditions in all cases: 3 mM potassium oxalate; crude DDM-solubilised OxlT-GFPuv from E. coli membranes; 300 mM potassium acetate, pH 7.0
OxlT [1] = target: T1, OxlT (Oxalobacter formigenes, UniProt Q51330, W352A)
T1 construct: full-length; C-terminal nona-His tag from E. coli XL3 (crystal, purified); C-terminal GFPuv fusion from E. coli BL21(DE3) in DDM (GFP-TS); pRSF-OxlT for transport; monomer

OxlT [2] = target: T2, OxlT (Oxalobacter formigenes, UniProt Q51330)
T2 construct: full-length; C-terminal nona-His tag from E. coli XL3 (crystal, purified); C-terminal GFPuv fusion from E. coli BL21(DE3) in DDM (GFP-TS); pRSF-OxlT for transport; monomer
T2 sequence (Q51330 1-418): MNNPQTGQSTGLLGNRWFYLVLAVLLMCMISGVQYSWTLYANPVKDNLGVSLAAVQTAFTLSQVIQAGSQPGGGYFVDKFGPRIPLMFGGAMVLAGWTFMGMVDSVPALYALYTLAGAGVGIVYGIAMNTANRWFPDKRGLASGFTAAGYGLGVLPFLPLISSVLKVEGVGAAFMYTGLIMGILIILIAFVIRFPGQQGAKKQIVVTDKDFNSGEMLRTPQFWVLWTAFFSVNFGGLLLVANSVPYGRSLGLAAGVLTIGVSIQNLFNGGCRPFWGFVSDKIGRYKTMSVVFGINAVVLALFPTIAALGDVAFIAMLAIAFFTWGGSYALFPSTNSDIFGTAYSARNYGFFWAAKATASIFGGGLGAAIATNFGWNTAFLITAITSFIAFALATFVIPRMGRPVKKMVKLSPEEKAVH

OxlT [3] = target: T3, OxlT (Oxalobacter formigenes, UniProt Q51330, K355Q)
T3 construct: full-length; C-terminal nona-His tag from E. coli XL3 (crystal, purified); C-terminal GFPuv fusion from E. coli BL21(DE3) in DDM (GFP-TS); pRSF-OxlT for transport; monomer

OxlT [4] = target: T4, OxlT (Oxalobacter formigenes, UniProt Q51330, Q34A)
T4 construct: full-length; C-terminal nona-His tag from E. coli XL3 (crystal, purified); C-terminal GFPuv fusion from E. coli BL21(DE3) in DDM (GFP-TS); pRSF-OxlT for transport; monomer

OxlT [5] = target: T5, OxlT (Oxalobacter formigenes, UniProt Q51330, Y124A)
T5 construct: full-length; C-terminal nona-His tag from E. coli XL3 (crystal, purified); C-terminal GFPuv fusion from E. coli BL21(DE3) in DDM (GFP-TS); pRSF-OxlT for transport; monomer

OxlT [6] = target: T6, OxlT (Oxalobacter formigenes, UniProt Q51330, Y328A)
T6 construct: full-length; C-terminal nona-His tag from E. coli XL3 (crystal, purified); C-terminal GFPuv fusion from E. coli BL21(DE3) in DDM (GFP-TS); pRSF-OxlT for transport; monomer

OxlT [7] = target: T7, OxlT (Oxalobacter formigenes, UniProt Q51330, R272A)
T7 construct: full-length; C-terminal nona-His tag from E. coli XL3 (crystal, purified); C-terminal GFPuv fusion from E. coli BL21(DE3) in DDM (GFP-TS); pRSF-OxlT for transport; monomer

OxlT [8] = target: T8, OxlT (Oxalobacter formigenes, UniProt Q51330, Y35A)
T8 construct: full-length; C-terminal nona-His tag from E. coli XL3 (crystal, purified); C-terminal GFPuv fusion from E. coli BL21(DE3) in DDM (GFP-TS); pRSF-OxlT for transport; monomer

OxlT [9] = target: T9, OxlT (Oxalobacter formigenes, UniProt Q51330, W324A)
T9 construct: full-length; C-terminal nona-His tag from E. coli XL3 (crystal, purified); C-terminal GFPuv fusion from E. coli BL21(DE3) in DDM (GFP-TS); pRSF-OxlT for transport; monomer

OxlT [10] = target: T10, OxlT (Oxalobacter formigenes, UniProt Q51330, Y150A)
T10 construct: full-length; C-terminal nona-His tag from E. coli XL3 (crystal, purified); C-terminal GFPuv fusion from E. coli BL21(DE3) in DDM (GFP-TS); pRSF-OxlT for transport; monomer

OxlT [11] = target: T11, OxlT (Oxalobacter formigenes, UniProt Q51330, N268A)
T11 construct: full-length; C-terminal nona-His tag from E. coli XL3 (crystal, purified); C-terminal GFPuv fusion from E. coli BL21(DE3) in DDM (GFP-TS); pRSF-OxlT for transport; monomer
T11 sequence (Q51330 whole entry N268A, the tested form may be a part): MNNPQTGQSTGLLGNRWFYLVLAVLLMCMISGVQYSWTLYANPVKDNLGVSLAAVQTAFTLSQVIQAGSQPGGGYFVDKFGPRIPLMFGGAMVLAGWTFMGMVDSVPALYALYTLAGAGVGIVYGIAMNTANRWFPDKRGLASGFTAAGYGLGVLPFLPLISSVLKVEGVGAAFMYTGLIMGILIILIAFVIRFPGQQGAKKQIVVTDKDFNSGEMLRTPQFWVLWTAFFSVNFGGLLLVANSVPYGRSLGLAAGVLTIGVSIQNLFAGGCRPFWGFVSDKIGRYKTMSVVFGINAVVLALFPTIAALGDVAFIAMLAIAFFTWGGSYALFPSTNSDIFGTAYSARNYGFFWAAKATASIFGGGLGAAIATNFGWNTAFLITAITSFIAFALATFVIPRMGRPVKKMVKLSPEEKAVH

T7 sequence (Q51330 whole entry R272A, the tested form may be a part): as the sequence (Q51330 whole entry N268A, the tested form may be a part) above, with A268N, R272A counted along it
T10 sequence (Q51330 whole entry Y150A, the tested form may be a part): as the sequence (Q51330 whole entry N268A, the tested form may be a part) above, with Y150A, A268N counted along it
T8 sequence (Q51330 whole entry Y35A, the tested form may be a part): as the sequence (Q51330 whole entry N268A, the tested form may be a part) above, with Y35A, A268N counted along it
T6 sequence (Q51330 whole entry Y328A, the tested form may be a part): as the sequence (Q51330 whole entry N268A, the tested form may be a part) above, with A268N, Y328A counted along it
T9 sequence (Q51330 whole entry W324A, the tested form may be a part): as the sequence (Q51330 whole entry N268A, the tested form may be a part) above, with A268N, W324A counted along it
T1 sequence (Q51330 whole entry W352A, the tested form may be a part): as the sequence (Q51330 whole entry N268A, the tested form may be a part) above, with A268N, W352A counted along it
T3 sequence (Q51330 whole entry K355Q, the tested form may be a part): as the sequence (Q51330 whole entry N268A, the tested form may be a part) above, with A268N, K355Q counted along it
T5 sequence (Q51330 whole entry Y124A, the tested form may be a part): as the sequence (Q51330 whole entry N268A, the tested form may be a part) above, with Y124A, A268N counted along it
T4 sequence (Q51330 whole entry Q34A, the tested form may be a part): as the sequence (Q51330 whole entry N268A, the tested form may be a part) above, with Q34A, A268N counted along it

**Q.** Which results are given for `O=C(O)C(=O)O` [oxalate]?
**A.** dTm (OxlT [1]): Y328A and W352A showed similar oxalate binding but reduced oxalate uptake activities; dTm (OxlT [2]): In the GFP-TS assay, wild-type OxlT exhibited thermal stabilisation upon oxalate binding.; dTm (OxlT [3]): reduced in the mutant OxlT proteins Q34A, Y35A, Y124A, Y150A, N268A, R272A, W324A and K355Q; dTm (OxlT [4]): reduced in the mutant OxlT proteins Q34A, Y35A, Y124A, Y150A, N268A, R272A, W324A and K355Q; dTm (OxlT [5]): reduced in the mutant OxlT proteins Q34A, Y35A, Y124A, Y150A, N268A, R272A, W324A and K355Q; dTm (OxlT [6]): Y328A and W352A showed similar oxalate binding but reduced oxalate uptake activities; dTm (OxlT [7]): reduced in the mutant OxlT proteins Q34A, Y35A, Y124A, Y150A, N268A, R272A, W324A and K355Q; dTm (OxlT [8]): reduced in the mutant OxlT proteins Q34A, Y35A, Y124A, Y150A, N268A, R272A, W324A and K355Q; dTm (OxlT [9]): reduced in the mutant OxlT proteins Q34A, Y35A, Y124A, Y150A, N268A, R272A, W324A and K355Q; dTm (OxlT [10]): reduced in the mutant OxlT proteins Q34A, Y35A, Y124A, Y150A, N268A, R272A, W324A and K355Q; dTm (OxlT [11]): reduced in the mutant OxlT proteins Q34A, Y35A, Y124A, Y150A, N268A, R272A, W324A and K355Q
